From patent US20080025960A1, “Detergents with stabilized enzyme systems” (priority 2006, published 2008)

How the values were obtained:
alcohol oxidase = target: T1, alcohol oxidase (Pichia angusta, UniProt P04841); experiment: Hydrogen peroxide concentration in control buffer or AATCC liquid detergent stock (as is) with alcohol oxidase, ethanol and inhibitor; assay type: biochemical, Hansunela sp.; details: for character of alcohol oxidase inhibition: 100 mM concentration tested; for premature generation of H2O2 in AATCC detergent stock / H2O2 PPM: 100 mM inhibitor; for premature generation of H2O2 in AATCC detergent stock: period of investigation 120 minutes; for H2O2 PPM: as is, 1 M ethanol, 10U enzyme
T1 construct: purchased Sigma
Procedure: In these experiments, the stability of alcohol oxidase obtained from Hansunela sp., (100 U/ml. 22 U/mg, 13 mg total solid in vial, 7.7 U/mg solid; Sigma) in AATCC liquid detergent was tested. In these experiments, 10 U of the alcohol oxidase were used in liquid detergent stock for each experiment. For testing, 1M ethanol was mixed into the detergent (46 mg ethanol in 990 mg detergent). […] The experiments were conducted as described above in Examples 1 and 3.

glucose oxidase = target: T2, glucose oxidase (Aspergillus niger, UniProt P13006); experiment: Premature hydrogen peroxide generation by glucose oxidase in control buffer or AATCC liquid detergent stock (as is) with glucose and inhibitor, dipsticks; assay type: biochemical; details: for Hydrogen Peroxide Generation, PPM H2O2: T = 0+, 500 PPM oxidase; for Hydrogen Peroxide Generation, PPM H2O2 / hydrogen peroxide production / H2O2 generated: as is; for Hydrogen Peroxide Generation, PPM H2O2 / premature hydrogen peroxide generation / H2O2 PPM: 500 mM glucose; for premature hydrogen peroxide generation: liquid detergent formulation, 500 PPM glucose oxidase, over 21 days; for H2O2 PPM: T = 0+, 12, 30, as is, 500 PPM enzyme, 100 mM sodium metabisulfite; for H2O2 generated: time 0+
T2 construct: purchased Genencor OXYGO L-5000
Excerpt: In this Example, experiments conducted to assess the stabilization of glucose oxidase in the presence of its substrate (i.e., glucose) and an inhibitor (i.e., sodium hydrogen sulfite) is described. In these experiments, AATCC standard detergent (American Association of Textile Chemists and Colorists Heavy Duty Liquid detergent version 2003 without brightener; key components include linear alkane sulfonate, alcohol ethoxylate, propanediol, citric acid, fatty acid, castic soda and water; purchased from TestFabrics) was used.
In these experiments, 100 mM Tris pH 8.3, with 0.005% TWEEN®-100 surfactant used as a positive control. […] Three two-ml tubes were weighed with 0.990 g of AATCC detergent (lot # 01282004) and another three tubes with 0.990 g of control buffer. Then, 90 mg (500 mM) of glucose substrate were added to all of the tubes. Next, 100, 50, and 10 mM sodium hydrogen sulfite (MW 106.1) were added to each tube respectively, including the control buffer and AATCC detergent control. All of the tubes were placed on a rotary plate for an hour to allow good mixing and solubilization of glucose into the detergent. Then, 500 PPM (0.5 mg, 14.88 ul) glucose oxidase (OXYGO™ L-5000, 5379 U/ml; 33.6 mg/ml; Genencor) was added to six 2-ml tubes (three with glucose/bisulfite containing control buffers and three with glucose/bisulfite containing AATCC detergent). All of the tubes were then set on the rotary plate (60 rpm) at room temperature. Hydrogen peroxide production was measured using dipsticks (peroxidase/ABTS—Baker Testrips;Baker) at various times—t=0+minutes, 12 minutes, and 30 minutes. The tube containing 100 mM bisulfite with glucose, glucose oxidase in liquid detergent was further monitored for premature generation of hydrogen peroxide further over a period of time starting at 1 hr, 12 hr, 7 days, 12 days and up to 21 days.
In these experiments, 100 mM Tris pH 8.3, with 0.005% TWEEN®-100 surfactant was used as a positive control. […] Three two-ml tubes were weighed with 0.990 g of AATCC detergent (lot # 01282004) and another three tubes with 0.990 g of control buffer.
Three two-ml tubes containing 0.990 g of AATCC detergent (lot # 01282004) and another three tubes with 0.990 g of control buffer were weighed. Then, 90 mg (500 mM) glucose substrate was added to each tube. Then, 100, 50, and 10 mM sodium metabisulfite were added to each tube respectively (i.e., both control buffer and AATCC detergent-containing tubes). All of the tubes were placed on a rotary plate for an hour to allow good mixing and solubilization of glucose into the detergent. Next, 500 PPM (0.5 mg, 14.88 ul) glucose oxidase (OXYGO™ L-5000, 5379 U/ml; 33.6 mg/ml; Genencor) was added to six 2-ml tubes (three with glucose/metabisulfite containing control buffers and three with glucose/metabisulfite containing AATCC detergent). All of the tubes were then set on the rotary plate (60 rpm) at room temperature. H2O2 production was measured using dipsticks (peroxidase/ABTS), as described in Examples 1 and 2, for t=0+ minutes, 12 minutes, and 30 minutes. The tube containing 100 mM bisulfite with glucose, glucose oxidase in liquid detergent was further monitored for premature generation of hydrogen peroxide further over a period of time starting at 1 hr, 12 hr, 7 days, 12 days and up to 21 days.

T1 sequence (P04841 whole entry): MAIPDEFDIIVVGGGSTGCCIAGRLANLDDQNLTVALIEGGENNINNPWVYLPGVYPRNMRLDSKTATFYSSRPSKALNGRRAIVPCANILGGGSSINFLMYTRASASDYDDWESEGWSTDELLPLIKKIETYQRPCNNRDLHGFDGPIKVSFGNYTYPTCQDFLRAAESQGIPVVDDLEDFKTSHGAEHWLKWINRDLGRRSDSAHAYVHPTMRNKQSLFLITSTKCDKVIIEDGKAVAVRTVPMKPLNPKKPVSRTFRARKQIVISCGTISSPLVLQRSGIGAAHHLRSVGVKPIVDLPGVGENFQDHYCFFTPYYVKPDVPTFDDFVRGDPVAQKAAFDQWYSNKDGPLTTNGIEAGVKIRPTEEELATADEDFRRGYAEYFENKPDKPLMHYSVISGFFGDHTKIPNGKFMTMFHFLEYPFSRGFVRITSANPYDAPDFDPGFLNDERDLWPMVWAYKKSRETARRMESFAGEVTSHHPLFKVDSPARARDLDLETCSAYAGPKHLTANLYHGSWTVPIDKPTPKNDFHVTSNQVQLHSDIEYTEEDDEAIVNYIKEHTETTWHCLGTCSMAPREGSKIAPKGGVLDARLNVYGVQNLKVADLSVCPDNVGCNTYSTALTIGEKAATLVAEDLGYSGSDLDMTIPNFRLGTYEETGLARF
T2 sequence (P13006 17-605): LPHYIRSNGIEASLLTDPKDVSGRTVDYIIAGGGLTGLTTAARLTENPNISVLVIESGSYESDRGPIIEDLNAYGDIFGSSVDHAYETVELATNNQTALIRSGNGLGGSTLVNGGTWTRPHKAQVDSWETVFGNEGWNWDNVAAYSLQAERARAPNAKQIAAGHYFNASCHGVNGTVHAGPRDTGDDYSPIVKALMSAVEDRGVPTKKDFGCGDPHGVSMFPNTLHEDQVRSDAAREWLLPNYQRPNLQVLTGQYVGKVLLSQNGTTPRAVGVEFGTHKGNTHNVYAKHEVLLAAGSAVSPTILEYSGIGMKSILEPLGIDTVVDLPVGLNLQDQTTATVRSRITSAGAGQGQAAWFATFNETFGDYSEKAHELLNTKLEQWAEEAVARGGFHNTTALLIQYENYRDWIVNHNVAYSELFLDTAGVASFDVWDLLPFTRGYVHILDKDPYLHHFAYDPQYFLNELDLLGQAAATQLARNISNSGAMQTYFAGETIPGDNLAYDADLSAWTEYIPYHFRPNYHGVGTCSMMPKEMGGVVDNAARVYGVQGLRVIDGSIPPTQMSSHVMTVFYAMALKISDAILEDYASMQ

| Compound | character of alcohol oxidase inhibition (alcohol oxidase) | premature generation of H2O2 in AATCC detergent stock (alcohol oxidase) | H2O2 PPM (alcohol oxidase; AATCC Detergent, T = 0+) | H2O2 PPM (alcohol oxidase; AATCC Detergent, T = 12 min) | H2O2 PPM (alcohol oxidase; AATCC Detergent, T = 30 min) | H2O2 PPM (alcohol oxidase; AATCC Detergent, T = 120 min) | H2O2 PPM (alcohol oxidase; Control Buffer, T = 0+) | H2O2 PPM (alcohol oxidase; Control Buffer, T = 12 min) | H2O2 PPM (alcohol oxidase; Control Buffer, T = 30 min) | H2O2 PPM (alcohol oxidase; Control Buffer, T = 120 min) | further results |
| --- | --- | --- | --- | --- | --- | --- | --- | --- | --- | --- | --- |
| O=S([O-])O.[Na+] [bisulfite, sodium hydrogen sulfite] | reversible inhibitors | able to stop premature generation of H2O2 | 0 PPM | 0 PPM | 0 PPM | 0, PPM | 0 PPM | 0 PPM | 0 PPM | 0 PPM | Hydrogen Peroxide Generation, PPM H2O2 (glucose oxidase; AATCC Detergent, 10 mM bisulfite): >10 PPM; Hydrogen Peroxide Generation, PPM H2O2 (glucose oxidase; AATCC Detergent, 50 mM bisulfite): 10 PPM; Hydrogen Peroxide Generation, PPM H2O2 (glucose oxidase; AATCC Detergent, 100 mM bisulfite): 0 PPM; Hydrogen Peroxide Generation, PPM H2O2 (glucose oxidase; Control Buffer, 10 mM bisulfite): 1 PPM; Hydrogen Peroxide Generation, PPM H2O2 (glucose oxidase; Control Buffer, 50 mM bisulfite): 0 PPM; Hydrogen Peroxide Generation, PPM H2O2 (glucose oxidase; Control Buffer, 100 mM bisulfite): 0 PPM; hydrogen peroxide production (glucose oxidase; Example 3 (metabisulfite), buffer control mixture, 50 mM, various time periods tested): did not produce any hydrogen peroxide; hydrogen peroxide production (glucose oxidase; Example 3 (metabisulfite), buffer control mixture, 100 mM, time periods tested): did not produce any hydrogen peroxide; hydrogen peroxide production (glucose oxidase; buffer control mixture, 50 mM bisulfite, various time periods tested): did not produce any hydrogen peroxide; hydrogen peroxide production (glucose oxidase; buffer control mixture, 100 mM bisulfite, time periods tested): did not produce any hydrogen peroxide; premature hydrogen peroxide generation (glucose oxidase; 100 mM sodium hydrogen sulfite): no premature hydrogen peroxide generation was observed |
| O=S([O-])S(=O)(=O)[O-].[Na+].[Na+] [sodium metabisulfite] | reversible inhibitors | able to stop premature generation of H2O2 | 0 PPM | 0 PPM | 0 PPM | 0, PPM | 0 PPM | 0 PPM | 0 PPM | 0 PPM | H2O2 PPM (glucose oxidase; AATCC Detergent): 0 PPM; H2O2 PPM (glucose oxidase; Control Buffer): 0 PPM; H2O2 generated (glucose oxidase; buffer control mixture, 10 mM metabisulfite): 1 PPM; H2O2 generated (glucose oxidase; detergent mixture, 10 mM metabisulfite): > 10 PPM; H2O2 generated (glucose oxidase; detergent mixture, 50 mM metabisulfite): > 10 PPM; premature hydrogen peroxide generation (glucose oxidase; 100 mM inhibitor): no premature hydrogen peroxide generation was observed |
